These results are taken from patent US20240336574A1 (LATIGO BIOTHERAPEUTICS, INC., priority 2021, published 2024).

For orientation: IC50 means the concentration that gives 50% inhibition.

The target of the assay is T1, recombinant human NaV1.8 stably transfected HEK cells (Homo sapiens, UniProt Q9Y5Y9).
T1 construct: expressed in transfected cells; host or cells: HEK cells, stably transfected
Put plainly: Compound profiling on NaV1.8, human NaV1.8 cell line, SyncroPatch384PE automated patch clamp assay (Example 115, third set of compounds, Table 27). The settings on record: human NaV1.8 HEK cells, Table 27 (third set of compounds). It is filed as cell-based. On the procedure: Compound Profiling on NaV1.8 Human NaV1.8 Cell Line SyncroPatch384PE Assay
Compounds were tested on recombinant human NaV1.8 stably transfected HEK cells using the SyncroPatch384PE system, an automated patch clamp device. Cells were cultured at 37° C./5% CO2 in DMEM medium supplemented with GlutaMAX I, NEAA 1%, FBS 10% and seeded in T175 flasks. Cells were cultured at 30° C. one day prior to recording sodium currents. On the day of the recordings, cells were detached with 0.05% Trypsin-EDTA, resuspended in serum free DMEM medium and placed into the SyncroPatch384PE 6° C. pre-cooled cell hotel and shaken at 200 rpm. Intracellular solution (IC) contained, in mM: 10, CsCl; 110, CsF; 20, EGTA; 10, HEPES. Extracellular solution (EC) contained, in mM: 140, NaCl; 4, KCl; 5, Glucose; 10, HEPES; 2, CaCl2; 1, MgCl2. Washing solution contained, in mM: 40, NMDG; 100, NaCl; 4, KCl; 10, Glucose; 10, HEPES; 5, CaCl2; 1, MgCl2.
Compounds were tested in quadruplicates in 0.1% DMSO and 0.030% Pluronic Acid. Compounds were diluted 1:3.33 in EC solution to create a 10-point concentration response curve, spanning a final concentration range from 10-0.0002 μM in the assay plate. Compounds with low nM potency were retested using a lower concentration range (1-0.00002 μM). Each plate contained tetracaine and another tool compound as positive controls. Up to 7 compounds were tested on one plate. 150 μM tetracaine and 0.1% DMSO were used as high and low controls, respectively.
Whole cell patch clamp recordings were conducted according to Nanion's standard procedure for SyncroPatch384PE®. Cells were held at a holding potential of −120 mV. A depolarization step to 10 mV for 30 ms was applied (P1 measurement), followed by a hyperpolarization step to −100 mV for 100 ms. An inactivation step at −40 mV for 10 sec was applied before stepping to −100 mV for 20 ms, followed by a step to 10 mV for 30 ms (P2 measurement) and then back to −100 mV for 30 ms. Sweep interval was 15 sec with a sampling rate of 10 kHz. Following establishment of the whole-cell configuration in EC, two washing steps with reference buffer were performed to stabilize the baseline. Compounds were then applied by the SynchroPatch into each well and the current was recorded for five minutes in EC, followed by application of tetracaine to achieve full block at the end of the experiment. The potency of the compounds was assessed on two read-outs, resting state block (P1 measurement) or inactivated state block (P2 measurement) to obtain IC50 values. Values were normalized to high (tetracaine) and low (DMSO) controls.

Setting [1] is: inactivated state block (P2 measurement), read-out: P2 IC50.
The mark [2] stands for this setting: resting state block (P1 measurement), read-out: P1 IC50.

Where two headings read alike, the source gives them in different places.

T1 sequence (Q9Y5Y9 whole entry): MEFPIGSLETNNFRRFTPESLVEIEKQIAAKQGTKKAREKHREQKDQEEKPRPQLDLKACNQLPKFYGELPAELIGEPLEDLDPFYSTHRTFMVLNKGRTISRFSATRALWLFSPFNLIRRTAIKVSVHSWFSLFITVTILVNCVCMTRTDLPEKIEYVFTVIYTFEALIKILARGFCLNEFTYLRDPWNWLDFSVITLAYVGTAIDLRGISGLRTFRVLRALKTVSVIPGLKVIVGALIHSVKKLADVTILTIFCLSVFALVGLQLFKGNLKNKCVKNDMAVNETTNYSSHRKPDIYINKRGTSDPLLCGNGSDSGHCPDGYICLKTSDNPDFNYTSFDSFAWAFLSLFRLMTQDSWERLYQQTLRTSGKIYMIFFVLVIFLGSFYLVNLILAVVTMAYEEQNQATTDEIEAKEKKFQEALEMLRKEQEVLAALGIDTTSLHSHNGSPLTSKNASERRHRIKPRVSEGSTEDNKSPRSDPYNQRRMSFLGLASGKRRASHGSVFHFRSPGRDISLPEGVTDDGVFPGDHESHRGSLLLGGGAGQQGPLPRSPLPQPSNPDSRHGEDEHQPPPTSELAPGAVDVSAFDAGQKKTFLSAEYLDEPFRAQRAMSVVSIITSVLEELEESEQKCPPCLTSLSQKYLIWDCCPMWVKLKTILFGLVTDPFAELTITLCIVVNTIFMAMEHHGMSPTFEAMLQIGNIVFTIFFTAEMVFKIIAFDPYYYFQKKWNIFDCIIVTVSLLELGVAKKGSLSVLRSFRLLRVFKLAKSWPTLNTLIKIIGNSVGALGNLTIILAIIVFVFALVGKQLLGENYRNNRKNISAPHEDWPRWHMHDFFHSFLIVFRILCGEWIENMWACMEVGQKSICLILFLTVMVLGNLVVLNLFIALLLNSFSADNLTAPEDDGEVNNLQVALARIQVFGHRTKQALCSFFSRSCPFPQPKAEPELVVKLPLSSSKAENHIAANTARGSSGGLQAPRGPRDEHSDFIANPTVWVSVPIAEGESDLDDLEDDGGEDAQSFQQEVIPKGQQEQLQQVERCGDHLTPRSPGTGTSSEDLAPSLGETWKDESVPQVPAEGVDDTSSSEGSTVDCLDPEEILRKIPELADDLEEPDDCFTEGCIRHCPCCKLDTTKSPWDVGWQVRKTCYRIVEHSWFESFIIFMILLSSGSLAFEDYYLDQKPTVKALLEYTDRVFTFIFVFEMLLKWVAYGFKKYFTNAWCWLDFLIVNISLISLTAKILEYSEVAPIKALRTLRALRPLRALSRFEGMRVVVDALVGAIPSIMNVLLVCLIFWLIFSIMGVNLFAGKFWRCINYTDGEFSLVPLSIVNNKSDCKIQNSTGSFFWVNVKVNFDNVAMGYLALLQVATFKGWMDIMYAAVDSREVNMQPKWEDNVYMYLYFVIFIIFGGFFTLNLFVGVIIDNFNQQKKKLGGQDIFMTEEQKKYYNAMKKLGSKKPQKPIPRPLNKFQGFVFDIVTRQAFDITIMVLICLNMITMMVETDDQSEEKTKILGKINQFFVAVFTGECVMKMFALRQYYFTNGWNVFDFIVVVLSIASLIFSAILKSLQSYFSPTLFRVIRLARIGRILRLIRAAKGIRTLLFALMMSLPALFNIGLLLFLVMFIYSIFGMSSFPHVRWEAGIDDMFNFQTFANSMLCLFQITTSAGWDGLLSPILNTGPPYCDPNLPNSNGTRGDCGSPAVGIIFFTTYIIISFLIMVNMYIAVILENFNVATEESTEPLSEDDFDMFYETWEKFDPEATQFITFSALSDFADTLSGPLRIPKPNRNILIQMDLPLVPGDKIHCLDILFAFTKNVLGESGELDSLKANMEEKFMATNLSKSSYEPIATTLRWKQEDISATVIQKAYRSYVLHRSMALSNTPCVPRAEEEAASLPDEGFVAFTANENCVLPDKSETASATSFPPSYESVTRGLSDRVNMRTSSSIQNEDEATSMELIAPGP

Turning to `O=C(Nc1cc[nH]c(=O)c1)c1cc(C(F)(F)F)nnc1Oc1ccc(F)cc1Cl` [Compound 89, 3-(2-Chloro-4-fluorophenoxy)-N-(2-oxo-1,2-dihydropyridin-4-yl)-6-(trifluoromethyl)pyridazine-4-carboxamide], the IC50 fell in the range of 1000 to 5000 nM under setting [1] and 1000 to 5000 nM under setting [2].
As to `O=C(Nc1ccnnc1)c1cc(C(F)(F)F)nnc1Oc1ccc(F)cc1Cl` [Compound 63], the IC50 under setting [1] was 501 to 1000 nM and the IC50 under setting [2] was 201 to 500 nM.
`COc1cc(F)ccc1Oc1nnc(C(F)(F)F)cc1C(=O)Nc1cccc(-n2cnnc2)c1` [Compound 22]: the IC50 by setting is: under setting [1], 1000 to 5000 nM; under setting [2], 1000 to 5000 nM.
Regarding `COc1cc(F)ccc1Oc1nnc(C(F)(F)F)cc1C(=O)Nc1cncc(S(C)(=O)=O)c1` [Compound 16], the IC50 is, setting by setting: under setting [1], 1000 to 5000 nM; under setting [2], 1000 to 5000 nM.
For the molecule `COc1cc(F)ccc1Oc1nnc(C(F)(F)F)cc1C(=O)Nc1cccc(S(C)(=N)=O)c1` (centres unmarked) [Compound 99, 3-(4-Fluoro-2-methoxyphenoxy)-N-(3-(S-methylsulfonimidoyl)phenyl)-6-(trifluoromethyl)pyridazine-4-carboxamide], the IC50 runs as follows: under setting [1], at most 200 nM; under setting [2], at most 200 nM.
For `CCOc1cc(F)ccc1Oc1nnc(C)cc1C(=O)Nc1cccc(S(C)(=N)=O)c1` (centres unmarked) [Compound 95, 3-(2-Ethoxy-4-fluorophenoxy)-6-methyl-N-(3-(S-methylsulfonimidoyl)phenyl)pyridazine-4-carboxamide], the IC50 is, setting by setting: under setting [1], above 5000 nM; under setting [2], above 5000 nM.
As to `COc1cc(NC(=O)c2cc(C(F)(F)F)nnc2Oc2ccc(F)cc2OC)ccn1` [Compound 33], the IC50 under setting [1] was at most 200 nM and the IC50 under setting [2] is at most 200 nM.
For `Cc1cc(OC(F)(F)F)ccc1Oc1nnc(C(F)(F)F)cc1C(=O)Nc1cccc(S(C)(=O)=O)c1` [Compound 35], the IC50 runs as follows: under setting [1], at most 200 nM; under setting [2], at most 200 nM.
`COc1cc(NC(=O)c2cc(C(F)(F)F)nnc2Oc2ccc(F)cc2C)ccn1` [Compound 86]: the IC50 runs as follows: under setting [1], 501 to 1000 nM; under setting [2], 501 to 1000 nM.
In the case of `CS(=O)(=O)c1cccc(NC(=O)c2cc(C(F)(F)F)nnc2Oc2ccc(F)cc2Cl)n1` [Compound 68], the IC50 under setting [1] is above 5000 nM and the IC50 under setting [2] was above 5000 nM.
Take `COc1c(Oc2ncc(C(F)(F)F)nc2C(=O)Nc2cccc(S(C)(=N)=O)c2)ccc(F)c1F` (centres unmarked) [Compound 136, 3-(3,4-difluoro-2-methoxy-phenoxy)-N-[3-(methylsulfonimidoyl)phenyl]-6-(trifluoromethyl)pyrazine-2-carboxamide]: the IC50 is at most 200 nM under setting [1] and at most 200 nM under setting [2].
In the case of `COc1cc(F)ccc1Oc1nnc(C(F)(F)F)cc1C(=O)Nc1cccc(S(=O)(=O)C2CC2)c1` [Compound 25], the IC50 under setting [1] is at most 200 nM and the IC50 under setting [2] was at most 200 nM.
With `COc1cc(F)ccc1Oc1nnc(C(F)(F)F)cc1C(=O)Nc1cccc(-n2cnnc2C)c1` [Compound 54], the half-inhibitory concentration (IC50) under setting [1] lay within 1000 to 5000 nM and the IC50 under setting [2] was 1000 to 5000 nM.
In the case of `COc1cc(F)ccc1Oc1nnc(C(F)(F)F)cc1C(=O)Nc1ccc2c(c1)S(=O)(=O)NC2=O` [Compound 43], the IC50 under setting [1] fell in the range of 1000 to 5000 nM and the IC50 under setting [2] was 501 to 1000 nM.
Consider `Cc1cc(C#N)ccc1Oc1nnc(C(F)(F)F)cc1C(=O)Nc1cccc(S(C)(=N)=O)c1` (centres unmarked) [Compound 114, 3-(4-Cyano-2-methylphenoxy)-N-(3-(S-methylsulfonimidoyl)phenyl)-6-(trifluoromethyl)pyridazine-4-carboxamide], for which the IC50 is at most 200 nM under setting [1] and at most 200 nM under setting [2].
Regarding `Cc1cc(C(=O)Nc2cccc(S(C)(=N)=O)c2)c(Oc2ccc(F)cc2C)nn1` (centres unmarked) [Compound 93, 3-(4-Fluoro-2-methyl-phenoxy)-6-methyl-N-[3-(methylsulfonimidoyl)phenyl]pyridazine-4-carboxamide], the IC50 is above 5000 nM under setting [1] and 1000 to 5000 nM under setting [2].
Regarding `COc1cc(F)ccc1Oc1nnc(C(F)(F)F)cc1C(=O)Nc1cccc(S2(=O)=NCCC2)c1` (centres unmarked) [Compound 45], the IC50 reads like this: under setting [1], 201 to 500 nM; under setting [2], 201 to 500 nM.
`CS(=N)(=O)c1cc(NC(=O)c2cc(C(F)(F)F)nnc2Oc2ccc(F)cc2Cl)ccn1` (centres unmarked) [Compound 97]: the IC50 lay within 1000 to 5000 nM under setting [1] and 1000 to 5000 nM under setting [2].
Regarding `NS(=O)(=O)c1cccc(NC(=O)c2cc(C(F)(F)F)nnc2Oc2cc(F)ccc2Cl)c1` [Compound 118, 3-(2-Chloro-5-fluorophenoxy)-N-(3-sulfamoylphenyl)-6-(trifluoromethyl)pyridazine-4-carboxamide], the IC50 is, setting by setting: under setting [1], at most 200 nM; under setting [2], at most 200 nM.
On to `Cc1ccc(F)cc1Oc1nnc(C(F)(F)F)cc1C(=O)Nc1cccc(S(N)(=O)=O)c1` [Compound 119, 3-(5-Fluoro-2-methylphenoxy)-N-(3-sulfamoylphenyl)-6-(trifluoromethyl)pyridazine-4-carboxamide], for which the IC50 under setting [1] was in the range of 501 to 1000 nM and the IC50 under setting [2] fell in the range of 501 to 1000 nM.
Take `COc1cc(F)ccc1Oc1nnc(C(F)(F)F)cc1C(=O)Nc1cncc(S(N)(=O)=O)c1` [Compound 49]: the IC50 is, setting by setting: under setting [1], at most 200 nM; under setting [2], at most 200 nM.
With `COc1cc(F)ccc1Oc1nnc(C(F)(F)F)cc1C(=O)Nc1ccc(C)c(S(C)(=O)=O)c1` [Compound 107, 3-(4-Fluoro-2-methoxyphenoxy)-N-(4-methyl-3-(methylsulfonyl)phenyl)-6-(trifluoromethyl)pyridazine-4-carboxamide], the IC50 is, setting by setting: under setting [1], at most 200 nM; under setting [2], at most 200 nM.
In the case of `COc1cc(F)ccc1Oc1nnc(C(F)(F)F)cc1C(=O)Nc1cccc(-n2ncnc2C)c1` [Compound 36], the IC50 was 501 to 1000 nM under setting [1] and 201 to 500 nM under setting [2].
Consider `Cc1cc(F)ccc1Oc1nnc(C(F)(F)F)cc1C(=O)Nc1ccc[n+]([O-])c1` [Compound 61], for which the IC50 was above 5000 nM under setting [1] and above 5000 nM under setting [2].
As for `Cc1cc(C#N)ccc1Oc1nnc(C(F)(F)F)cc1C(=O)Nc1cccc(S(C)(=O)=O)c1` [Compound 78], the IC50 under setting [1] was above 5000 nM and the IC50 under setting [2] is above 5000 nM.
`COc1ccc(F)cc1Oc1nnc(C(F)(F)F)cc1C(=O)Nc1cccc(S(C)(=N)=O)c1` (centres unmarked) [Compound 116]: the IC50 reads like this: under setting [1], 201 to 500 nM; under setting [2], 201 to 500 nM.
As for `COc1cc(F)ccc1Oc1nnc(C(F)(F)F)cc1C(=O)Nc1cccc(-c2nncn2C)c1` [Compound 38], the IC50 lay in the range of 1000 to 5000 nM under setting [1] and 1000 to 5000 nM under setting [2].
Turning to `O=C(Nc1ccc[n+]([O-])c1)c1cc(C(F)(F)F)nnc1Oc1ccc(F)cc1F` [Compound 60, 3-(3-(2,4-Difluorophenoxy)-6-(trifluoromethyl)pyridazine-4-carboxamido) pyridine 1-oxide], the IC50 by setting is: under setting [1], 1000 to 5000 nM; under setting [2], 1000 to 5000 nM.
On to `Cc1cc(F)ccc1Oc1nnc(C(F)(F)F)cc1C(=O)Nc1ccc(C)c(S(C)(=N)=O)c1` (centres unmarked) [Compound 109, 3-(4-Fluoro-2-methylphenoxy)-N-(4-methyl-3-(S-methylsulfonimidoyl)phenyl)-6-(trifluoromethyl)pyridazine-4-carboxamide], for which the IC50 lay in the range of 201 to 500 nM under setting [1] and 201 to 500 nM under setting [2].
Regarding `COc1cc(C#N)ccc1Oc1nnc(C(F)(F)F)cc1C(=O)Nc1cccc(C(N)=O)c1` [Compound 76], the half-maximal inhibitory concentration (IC50) was at most 200 nM under setting [1] and at most 200 nM under setting [2].
`CS(=O)(=O)c1cccc(NC(=O)c2cc(C(F)(F)F)nnc2Oc2ccc(OC(F)F)cc2)c1` [Compound 34]: the IC50 is at most 200 nM under setting [1] and at most 200 nM under setting [2].
For `COc1cc(C#N)ccc1Oc1nnc(C(F)(F)F)cc1C(=O)Nc1cccc(S(N)(=O)=O)c1` [Compound 121, 3-(4-Cyano-2-methoxyphenoxy)-N-(3-sulfamoylphenyl)-6-(trifluoromethyl)pyridazine-4-carboxamide], the IC50 is at most 200 nM under setting [1] and at most 200 nM under setting [2].
On to `COc1cc(F)ccc1Oc1nnc(C(F)(F)F)cc1C(=O)Nc1cccc(CS(C)(=O)=O)c1` [Compound 19], for which the IC50 was 1000 to 5000 nM under setting [1] and 1000 to 5000 nM under setting [2].
Consider `CCOc1cc(F)ccc1Oc1nnc(C)cc1C(=O)Nc1cccc(S(C)(=O)=O)c1` [Compound 108], for which the IC50 was above 5000 nM under setting [1] and above 5000 nM under setting [2].
